Assay results from EP0097546A1, “Benzhydrylsulfinyl ethyl amines, process for their preparation and their use in therapy” (LABORATOIRE L. LAFON Société anonyme dite:, priority 1982, dated 1984).

Experiments:
Type in all cases: in vivo
souris mâle = experiment: Toxicity, intraperitoneal route; conditions: male mouse, I.P. route
Procedure: (§1) On a résumé ci-après les résultats des essais neuro- pshychopharmacologiques qui ont été ertrepris avec le CRL 40883 (produit de l'exemple 1). Dans ces essais le CRL 40883 en solution dans de l'eau distillée à pH 5 a été administré par voie intra- péritonéale sous un volume de 20 ml/kg chez la souris mâle et sous un volume de 5 ml/kg chez le rat mâle.
• Chez la souris mâle la DL-30 par voie I.P. du CRL 40883 est de l'ordre de 250 mg/kg.

souris = experiment: Global behaviour and reactivities in the mouse; conditions: i.p.
Procedure: as §1
(§2) • Des lots de 6 animaux sont observés avant, puis 15 minutes, 30 minutes, 1 h , 2 h , 3 h et 24 h après l'administration de CRL 40 883.

rat = experiment: Global behaviour and reactivities in the rat; conditions: i.p.
Procedure: as §1, §2

[1] = system: hypothermies induites par l'apomorphine; experiment: Antagonism of apomorphine-induced hypothermia; conditions: i.p.
Procedure: as §1

[2] = system: hypothermies induites par la réserpine; experiment: Antagonism of reserpine-induced hypothermia; conditions: i.p.
Procedure: as §1

[3] = system: hypothermies induites par l'oxotrémorine; experiment: Antagonism of oxotremorine-induced hypothermia; conditions: i.p.
Procedure: as §1

[4] = system: stéréotypies amphétaminiques; experiment: Amphetamine stereotypies; conditions: i.p.
Procedure: as §1

groupes de souris = experiment: Intergroup aggressiveness test; conditions: groups of mice, i.p., doses 16 mg/kg and 64 mg/kg
Procedure: as §1

CNCC[S+]([O-])C(c1ccccc1)c1ccccc1 (centres unmarked) [CRL 40883, chlorhydratede N-[2-(benzhydrylsulfinyl)-éthyl]-méthylamine]
DL-30 (souris mâle): ~250 mg/kg
comportement et réactivités (souris; doses 64 mg/kg, 16 mg/kg, 4 mg/kg and 1 mg/kg, observed 15 min to 24 h): n'entraîne pas de modifications sensibles du comportement et des réactivités
sédation (souris; mainly at 128 mg/kg): sédation modérée
réactivité au toucher (rat; 32 mg/kg, lasting 30 minutes): hyporéactivité au toucher
tonus musculaire (rat; 32 mg/kg, lasting 30 minutes): hypotonie musculaire
symptômes (rat; doses 8 mg/kg, 2 mg/kg and 0,5 mg/kg): pas de symptômes particuliers
antagonisme des hypothermies induites par l'apomorphine [1]: antagonisme
antagonisme des hypothermies induites par la réserpine [2]: antagonisme
antagonisme des hypothermies induites par l'oxotrémorine [3]: antagonisme
stéréotypies amphétaminiques [4]: potentialisation des stéréotypies amphétaminiques
nombre de combats (groupes de souris): forte diminution du nombre de combats
